US11505556B2, “Halogenated derivatives of morphinans and uses thereof” (Xalud Therapeutics, Inc., priority 2017, dated 2022)

How the values were obtained:
Mouse hepatocytes = experiment: Hepatocyte elimination of parent compound
[1] = system: off-target screening panel; experiment: Off-target inhibition screening (whole panel); conditions: 10 μM test concentration, hit = inhibition at or above the 50% level
Text: In addition to the animal studies presented above in Examples 1-9, the results of in vitro testing of several of the compounds (i.e., XT-203, XT-204, and XT-206 through XT-217) are shown in Table 5 and Table 6. […]. Nine additional compounds had two or fewer off-target hits in the screening. […] These compounds spanned all of the tested N-modification classes. […]. Thus, the medicinal chemistry approach taken in this series of fluorinated compounds can yield low off-target activity and longer metabolic lifetime while preserving TLR4 antagonism. It is appreciated that further development of compounds in this class, using techniques known to those skilled in the art, may yield additional compounds with desirable pharmacologic and toxicologic characteristics.

hind paw incision pain = experiment: Rat hind paw incision pain model, SC dosing, von Frey testing (Example 2); format: in vivo; conditions: for effect on pain threshold (von Frey), day 1 and day 5 dosing: SC 3x per day for 5 days, XT-203 28 or 30 mg/kg, (+)-NTX data not shown
Method: Rats were housed in temperature (23+/−3° C.) and light (12 hour:12 hour, light:dark cycle; lights on at 0700) controlled rooms with standard rodent chow and water available ad libitum.
Von Frey Test for Mechanical Allodynia: Rats received at least three 60 min habituations to the test environment prior to behavioral testing. Response thresholds to calibrated light pressure stimuli applied to the plantar surface of the paws was measured using the von Frey test. […] All testing was conducted blind with respect to group assignment. The behavioral responses were used to calculate the threshold, by fitting a Gaussian integral psychometric function using a maximum-likelihood fitting method, as described in detail previously (Id.). Allodynia was assessed pre- and post-drug delivery.
Behavior testing for pain responses by von Frey testing was used to establish pain thresholds in the affected hind paw. Because dosage was 3×/day, behavior testing was performed after the first and second dose of day 1 dosing (1.1, 1.2) and after the first and second dose of day 5 dosing (5.1, 5.2). Testing sessions were performed 30 minutes after the dose was administered.

[2] = system: TLR4 (LPS-stimulated NO production, BV-2 mouse microglia cell line); experiment: NO assay: inhibition of LPS-induced NO production in BV-2 microglia (iNOS cellular); format: cell-based; conditions: for inhibition of NO production from LPS-stimulated BV2 cells: FIGS. 8B to 8D
Text: NO assay: Microglia are the resident cells of the innate immune system in the central nervous system, and TLR4 is primarily expressed by microglia rather than astrocytes or neurons in the CNS. Given this expression profile, the BV-2 mouse microglia cell line was used as the model system of microglia, as these cells recapitulate many of the responses of primary microglia with high fidelity. TLR4 activation induces the downstream production of the inflammatory factor NO, which contributes to the development of neuropathic pain and drug addiction. BV-2 murine microglia were grown in supplemented DMEM (including 10% FBS, 50 unit mL^−1 penicillin, 50 μg·mL^−1 streptomycin). BV-2 cells were detached from the flask by trypsin digestion when ˜80% confluence was reached. Cells were seeded at a density of 4×10^4 cells per well in 96-well plates. After overnight incubation, media was aspirated and changed to DMEM media without FBS. Cells were then treated with LPS (200 ng/ml) and different concentrations of the testing compounds. After 24 h treatment, 100 μL of supernatant media was removed after cells were treated for 24 h and added to flat black 96-well microfluor plates (Thermo Scientific, MA, USA). Subsequently, 10 μL of 2, 3-diaminonaphthalene (0.05 mg·mL^−1 in 0.62 M HCl) was added to each well and incubated for 15 min. The reaction was quenched by addition of 5 μL of 3 M NaOH and the plate was read on a Beckman Coulter DTX880 reader (Fullerton, Calif., USA) with excitation at 360 nm and emission at 430 nm.
N chain NTX: This experimentation involved an in vitro assay where mouse BV2 cells were treated with LPS, which results in the release of nitric oxide (NO). Blockade of TLR4 activity results in reduced NO production. Therefore, IC50 values were determined for test compounds that antagonize TLR4 activity. A series of test compounds were prepared, with different N-alkyl chains replacing the cyclopropyl methyl found in naltrexone. Cell viability was also measured by a standard assay, e.g., measurement of the release of cytoplasm-resident enzymes in the tissue culture supernatant or media to detect cell loss/lysis/rupture. A dose-inhibition curve was generated by testing the TLR4 antagonist compound for the ability to block LPS-stimulated iNOs induction. In FIG. 7, the inhibition levels across a range of doses are graphed, along with a regression curve. The IC50 value—50% inhibition level—is also provided, graphed against the length of the alkyl chain. Note that with longer N-alkyl chain the IC50 was reduced, although cell viability became problematic.
FIGS. 8B to 8D show the results of the inhibition of NO production from LPS-stimulated BV2 cells using the assay described above.

SMILES	glucuronidation of parent compound (Mouse hepatocytes; mouse hepatocytes, compared with XT-203)	off-target hits in the screening [1]	off-target hits in the screening ([1]; listed as XT-202)	effect on pain threshold (von Frey), day 1 and day 5 dosing (hind paw incision pain)	inhibition of NO production from LPS-stimulated BV2 cells [2]	IC50 ([2]; LPS (200 ng/ml), 24 h, BV-2 cells, Table 3)	IC50 ([2]; Table 6, unit inferred, footnote: Indicator of TL4 antagonism)	Parent compound hepatocyte elimination half-life, Mouse (Mouse hepatocytes; cultured mouse hepatocytes)	effect during day 5 testing compared with morphine 3 mg/kg (hind paw incision pain; XT-203 28 or 30 mg/kg SC 3x per day)	IC50 ([2]; Mus musculus, Microglia, Table 6, unit inferred, footnote: Indicator of TL4 antagonism)	IC50 ([2]; Mus musculus, LPS (200 ng/ml), 24 h, BV-2 cells, Table 3)
O=C1CC[C@]2(O)[C@@H]3Cc4ccc(O)c5c4[C@]2(CCN3CC2CC2)[C@@H]1O5 [(+)-naltrexone, reference compound]	significantly higher glucuronidation	none	NONE	not effective	good viability and inhibition	50 to 60 µM	50 to 60 µM				
COc1ccc2c3c1O[C@@H]1C(F)CCC4[C@H](C2)N(CC2CC2)CC[C@]341 (some centres unmarked) [XT-203]		activity at two targets		substantial effects	good viability and inhibition			26.28 min	matching the response to morphine	30 µM	30 to 50 µM
